Paper PMC6017089, “Discovery of a Manduca sexta Allatotropin Antagonist from a Manduca sexta Allatotropin Receptor Homology Model” (Molecules : A Journal of Synthetic Chemistry and Natural …, 2018)
“And” between values parts separate entries of the source, which are not always exact repeats. Equal values may be shown once. “Also recorded” adds a separate entry of the source. Read-outs that look alike come from different tables or passages of the source. Non-standard residues stand in square brackets, D forms with d. Residues, ends and D or L forms follow the SMILES beside them. No end group written: not given here. *: point of attachment. Phe(4-Cl) = N[C@@H](Cc1ccc(Cl)cc1)C(=O)O; Phe(4-Me) = Cc1ccc(C[C@H](N)C(=O)O)cc1; Ala(cPr) = N[C@@H](CC1CC1)C(=O)O; Isobutyryl = CC(C)C(=O)*

Tests used:
[1] = target: T1, corpora allata (CA) of adult female M. sexta stimulated with Manse-AT (Manduca sexta, UniProt F1CZQ1); assay type: cell-based
T1 sequence (F1CZQ1 1-457): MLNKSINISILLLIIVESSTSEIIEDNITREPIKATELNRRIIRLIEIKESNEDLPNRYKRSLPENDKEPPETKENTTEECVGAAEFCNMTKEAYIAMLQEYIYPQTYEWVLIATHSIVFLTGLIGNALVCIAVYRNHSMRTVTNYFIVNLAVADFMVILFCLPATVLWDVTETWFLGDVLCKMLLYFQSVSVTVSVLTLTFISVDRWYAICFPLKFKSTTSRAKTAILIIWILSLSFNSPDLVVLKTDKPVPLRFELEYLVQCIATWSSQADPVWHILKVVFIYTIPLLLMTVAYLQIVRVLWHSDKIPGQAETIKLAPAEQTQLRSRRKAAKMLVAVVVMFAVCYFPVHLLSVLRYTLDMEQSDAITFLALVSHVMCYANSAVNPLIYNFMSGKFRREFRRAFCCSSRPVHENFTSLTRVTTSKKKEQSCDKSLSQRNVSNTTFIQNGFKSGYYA
Description: (§1) On the day of adult emergence (day 0), females were marked and maintained in the wooden chamber until used. The assays for JH biosynthesis were performed using CA from day 3 females. A pair of CA with corpora cardiaca attached were incubated for 3 h at 30 °C in 100 µL of medium 199 (GIBCO) with Hanks’ salts, L-glutamine, 25 mM HEPES buffer (pH 7.2) and 2% Ficoll in the dark with gentle shaking. Compounds were dissolved in medium 199 for assay as described previously and used on the same day that the peptides were prepared. After incubation, 200 µl n-hexane containing 20 ng of citronellol as an internal standard was mixed with the incubation medium and the mixture was centrifuged at 2500× g for 5 min. The organic phases (upper layer) were removed and transferred to the analyzed vials. For M. sexta, it is known that JH II and JH III are predominantly made in adult (they contribute 99% of total JH, together). The change of total JH II and JH III titer was used to estimate the effects of JH biosynthesis in this study. The quantitative assay for JH II and JH III titer was determined by GC-MS/MS as described previously. The retention time of JH II and JH III was 11.16 min and 10.36 min, respectively. The quantification transition for JH II was 107→105.4 (collsion energy: 45 eV). Its confirmation transitions were 81→79.6 (collsion energy: 40 eV), 121→119 (collsion energy: 40 eV), 121→104.9 (collsion energy: 15 eV) and 121→92.9 (collsion energy: 10 eV), respectively. For JH III, the quantification transition was […] (collsion energy: 10 eV), the confirmation transitions were 81→79.1 (collsion energy: 5 eV), 94.9→67.1 (collsion energy: 10 eV), 120.9→93 (collsion energy: 10 eV) and 120.9→105.1 (collsion energy: 15 eV), respectively. Compounds were dissolved in medium 199 for assay and used on the same day that the peptides were prepared. Each data point on the dose-response figure represents replicate incubations of 9–13 experimental CA compared to control CA (i.e., no peptide added). EC50 (stimulator concentration50 defined as the concentration of stimulator that provokes a response halfway between the baseline and maximum response) values of Manse-AT and analogs were calculated from the dose-response curves.
Antagonistic effects of Manse-AT antagonists were measured with the compound mixture solutions (varying concentrations of the antagonist added together with Manse-AT) compared with the stimulation effects of Manse-AT. Dose response curves of antagonist on the inhibition of JH stimulation of Manse-AT was obtained using different concentrations of antagonist mixed with 1 nM Manse-AT (Supplementary Materials, Figure S1). Each data point on the dose-response figure was calculated using the Formula (1). (RManse-AT − RMixture)/(RManse-AT − RControl) (1)
RManse-AT is the average JH biosynthesis rate of 1 nM Manse-AT, RMixture is the rate of mixture contained different concentration antagonist and 1 nM Manse-AT, RControl is the average rate of medium without any peptides.
(§2) Data presented as percentages were log-transformed before statistical analyses. Data were analysed using a one-way analysis of variance (ANOVA) with a Dunnett’s multiple comparison test as the post hoc determination of significance using Prism Graph Pad version 5.0 (GraphPad Software, San Diego, CA, USA). Dose-response curves were also prepared using the computer program GraphPad Prism. Values are expressed as mean ± standard errors (S.E.M.) with N indicating the number of samples measured.

[2] = target: T2, corpora allata (CA) of adult female M. sexta (Manduca sexta, UniProt F1CZQ1); assay: Stimulation of JH biosynthesis in vitro by corpora allata; assay type: cell-based; settings: for Stimulation of JH Biosynthesis EC50 (95% CI) / EC50: pair of CA with corpora cardiaca from day 3 females, 3 h at 30 °C in medium 199 pH 7.2, total JH II + JH III by GC-MS/MS, 9–13 repeats per concentration, 95% CI in brackets; for Stimulation of JH Biosynthesis: Stimulation at 1 μM: peptide 1 μM, CA from day 3 females, 3 h at 30 °C, mean ± SEM, repeat number in brackets, versus control CA without peptide; for fold less potent than Manse-AT (EC50, stimulation of JH biosynthesis): ratio of EC50 values to Manse-AT
T2 sequence (F1CZQ1 1-457): T1 sequence (F1CZQ1 1-457)
Description: as §1, §2

[3] = read-out: Antagonistic Effects on JH Biosynthesis IC50 (95% CI); antagonist at varying concentrations mixed with 1 nM Manse-AT; CA from day 3 females, 3 h at 30 °C; JH II + JH III by GC-MS/MS; 9–13 repeats per concentration; 95% CI in brackets
[4] = ratio of IC50 values to Manse-AT (10–13)
[5] = antagonist at varying concentrations mixed with 1 nM Manse-AT; CA from day 3 females, 3 h at 30 °C; JH II + JH III by GC-MS/MS; 9–13 repeats per concentration; 95% CI in brackets

## C[C@H](N)C(=O)N[C@@H](CCCNC(=N)N)C(=O)NCC(=O)N[C@@H](Cc1ccccc1)C(N)=O [Manse-AT (10–13)] (H-ARGF-NH2)
[1]; [3]
  IC50: 0.0009 µM
[2]
  Stimulation of JH Biosynthesis EC50 (95% CI): cannot be calculated; also recorded: No effect
  Stimulation of JH Biosynthesis: Stimulation at 1 μM: 8.1± 17.6 (13) %

## N=C(N)NCCC[C@H](NC(=O)CN)C(=O)NCC(=O)N[C@@H](Cc1ccccc1)C(N)=O [analog 1] (H-GRGF-NH2)
[1]; [3]
  IC50: 0.0012 µM

## CC(C)C[C@H](N)C(=O)N[C@@H](CCCNC(=N)N)C(=O)NCC(=O)N[C@@H](Cc1ccccc1)C(N)=O [analog 2] (H-LRGF-NH2)
[1]; [3]
  IC50: 0.0354 µM

## CC(C)C(=O)N[C@@H](CCCNC(=N)N)C(=O)NCC(=O)N[C@@H](Cc1ccccc1)C(N)=O [analog 3] (Isobutyryl-Arg-Gly-Phe-NH2)
[1]; antagonist at varying concentrations mixed with 1 nM Manse-AT; CA from day 3 females, 3 h at 30 °C; JH II + JH III by GC-MS/MS; 9–13 repeats per concentration; 95% CI in brackets; read-out: Antagonistic Effects on JH Biosynthesis IC50 (95% CI)
  IC50: 0.0261 µM
[1]; [4]
  fold less active than the lead Manse-AT (10–13) (IC50, antagonistic effect): ~30 fold

## C[C@H](N)C(=O)N[C@@H](CCCNC(=N)N)C(=O)N[C@@H](C)C(=O)N[C@@H](Cc1ccccc1)C(N)=O [analog 7] (H-ARAF-NH2)
[1]; [3]
  IC50: 0.0175 µM

## C[C@H](N)C(=O)N[C@@H](CCCNC(=N)N)C(=O)N[C@@H](CC1CC1)C(=O)N[C@@H](Cc1ccccc1)C(N)=O [analog 8] (H-AR[Ala(cPr)]F-NH2)
[1]; [4]
  fold less active than the lead Manse-AT (10–13) (IC50, antagonistic effect): ~1145 fold

## C[C@H](N)C(=O)N[C@@H](CCCNC(=N)N)C(=O)NCC(=O)N[C@@H](Cc1ccc(O)cc1)C(N)=O [analog 10] (H-ARGY-NH2)
[1]; [3]
  IC50: 0.001 µM

## Cc1ccc(C[C@H](NC(=O)CNC(=O)[C@H](CCCNC(=N)N)NC(=O)[C@H](C)N)C(N)=O)cc1 [analog 11] (H-ARG[Phe(4-Me)]-NH2)
[1]; [3]
  IC50: 0.0084 µM

## C[C@H](N)C(=O)N[C@@H](CCCNC(=N)N)C(=O)NCC(=O)N[C@@H](Cc1ccc(Cl)cc1)C(N)=O [analog 12] (H-ARG[Phe(4-Cl)]-NH2)
[1]; [3]
  IC50: 0.0094 µM

## AMMTARGF-NH2 [Manse-AT (6–13) [Ala^1]]
[2]; concentration of 10 µM, adult female CA in vitro
  Stimulation of JH biosynthesis at 10 µM: completely inactive
[2]
  Stimulation of JH Biosynthesis EC50 (95% CI): No effect

## Ala-Ala-Gly-Phe-NH2 [analog 5, Manse-AT (10–13) analog, Arg replaced with Ala]
[1]; [5]
  Antagonistic Effects on JH Biosynthesis IC50 (95% CI): no antagonistic effect

## Ala-Arg-Gly-Ala-NH2 [analog 9, Manse-AT (10–13) analog, Phe replaced with Ala]
[1]; [5]
  Antagonistic Effects on JH Biosynthesis IC50 (95% CI): inactive; also recorded: No effect

## Ala-Leu-Gly-Phe-NH2 [analog 6, Manse-AT (10–13) analog, Arg replaced with Leu]
[1]; [5]
  Antagonistic Effects on JH Biosynthesis IC50 (95% CI): no antagonistic effect

## Arg-Gly-Phe-NH2 [Manse-AT (11–13), truncated tripeptide analog of Manse-AT]
[1]; [5]
  Antagonistic Effects on JH Biosynthesis IC50 (95% CI): did not possess any antagonistic effect; also recorded: No effect
[2]
  Stimulation of JH Biosynthesis EC50 (95% CI): cannot be calculated; also recorded: No effect
  Stimulation of JH Biosynthesis: Stimulation at 1 μM: 8.3 ± 16.4 (9) %

## GFKNVEMMTARGF-NH2 [Manse-AT, Manduca sexta allatotropin]
[2]
  EC50: 0.0009 µM
  Stimulation of JH Biosynthesis: Stimulation at 1 μM: 426.6 ± 86.3 (9) %

## H-EMMTARGF-NH2 [Manse-AT (6–13)]
[2]
  EC50: 0.0184 µM
  Stimulation of JH Biosynthesis: Stimulation at 1 μM: 600% and 600.5 ± 98.5 (9) %
  fold less potent than Manse-AT (EC50, stimulation of JH biosynthesis): about 20 fold

## H-MMTARGF-NH2 [Manse-AT (7–13)]
[2]
  EC50: 0.18 µM and 0.228 µM
  Stimulation of JH Biosynthesis: Stimulation at 1 μM: 232.9% and 232.9 ± 33.7 (9) %
  fold less potent than Manse-AT (EC50, stimulation of JH biosynthesis): 200 fold

## H-MTARGF-NH2 [Manse-AT (8–13)]
[2]
  EC50: 2.49 µM
  Stimulation of JH Biosynthesis: Stimulation at 1 μM: 133.1 ± 22.3 (9) %

## TARGFa [Manse-AT (9–13), truncated analog of Manse-AT]
[2]
  Stimulation of JH Biosynthesis EC50 (95% CI): cannot be calculated; also recorded: No effect
  Stimulation of JH Biosynthesis: Stimulation at 1 μM: 10.6 ± 21.0 (11) %
